From patent US4619943A, “Neolignans of Saururus cernuus L and analogues thereof” (priority 1984, dated 1986)
Values joined by “and” are separate entries in the source; they are usually repeats but may differ in a detail not shown here. Equal values may be shown once.

Experiments:
[1] = tested on: Meloidogyne incognita; assay: Nematicidal test: galls on tomato root system; format: in vivo; details: 10 days
Experimental: Juveniles of the nematode Meloidogyne incognita were placed in 10 ml vials containing 5 ml of sand each and were soaked with 3 ml of solutions of the test compound at different concentrations in 1% ethanol in water for 24 hours. Tomato seedlings (4-6" high, with roots partly trimmed) were placed in the vials which were then placed in a growth chamber at 28° for 10 days. The tests were watered as needed to keep the sand moist. After 10 days, the plants were removed, and the galls counted on each root system. Each sample was tested in replicates of 10, and the results were analyzed according to Duncan's multiple range test ([…]). The results for SC-8 are shown in Tables 3 and 4 which represent two different experiments spaced approximately two months apart. In the later test (Table 4), the amount of ethanol in the test solutions was varied.

[2] = tested on: mice; assay: Acute toxicity (LD50) in mice, procedure of Turner; format: in vivo, male Swiss mice
[3] = Acute toxicity (LD50) in mice, procedure of Turner; format: in vivo, male Swiss mice; details: mouse, in vivo, ip; mice, intraperitoneal, 24 hours
[4] = tested on: mice; assay: Neuroleptic / CNS-depressant activity in experimental animals (general statements); format: in vivo
[5] = Potentiation of pentobarbital sleeping time; format: in vivo, mice; design: Sleeping Time, Treated: unit not given here
Experimental: SC-8 has the ability to potentiate the sedative activity of pentobarbital. The procedure employed is that of Turner (R. A. Turner, Screening Methods in Pharmacology, Academic Press, New York, p. 302 (1965)), in which three groups of mice were injected ip with the drug at three levels and a control group with saline. […] The sleeping time of each was measured as the interval between the loss and recovery of the righting reflex, and activity is defined as at least a 200% prolongation of sleeping time.

[6] = Solubility; format: physicochemical

## COc1ccc(C(O)C(C)Oc2ccc([C@@H]3O[C@@H](c4ccc(OC(C)C(O)c5ccc(OC)c(OC)c5)c(OC)c4)[C@@H](C)[C@@H]3C)cc2OC)cc1OC (stereo partly drawn) [SC-8, 2α,5β-bis[3-methoxy-4-{threo-3-hydroxy-3-(3,4-dimethoxyphenyl)}isopropoxyphenyl]-3α,4β-dimethyltetrahydrofuran]
[1]; Table 3, 1 ppm, 1% ethanol
  Number of Galls/Root System, single replicates (1 to 10): 17 (2×) and 13 and 20 and 21 and 24 and 3 and 28 and 40 and 16
[1]; Table 3, 1 ppm, 1% ethanol, 1% ethanol control 23.7, water 28.8
  Number of Galls/Root System, Avg.: 19.8
[1]; Table 3, 5 ppm, 1% ethanol
  Number of Galls/Root System, single replicates (1 to 10): 26 and 34 and 3 and 0 (2×) and 19 and 24 and 4 and 14 and 13
[1]; Table 3, 5 ppm, 1% ethanol, 1% ethanol control 23.7, water 28.8
  Number of Galls/Root System, Avg.: 13.7
[1]; Table 3, 10 ppm, 1% ethanol
  Number of Galls/Root System, single replicates (1 to 10): 14 (2×) and 17 and 18 and 1 and 2 and 42 and 29 and 3 and 7
[1]; Table 3, 10 ppm, 1% ethanol, 1% ethanol control 23.7, water 28.8
  Number of Galls/Root System, Avg.: 14.7
[1]; Table 3, 25 ppm, 1% ethanol
  Number of Galls/Root System, single replicates (1 to 10): 3 and 10 and 11 and 18 and 17 (2×) and 26 and 15 and 12 and 24
[1]; Table 3, 25 ppm, 1% ethanol, 1% ethanol control 23.7, water 28.8
  Number of Galls/Root System, Avg.: 15.3
[1]; Table 3, 50 ppm, 1% ethanol
  Number of Galls/Root System, single replicates (1 to 10): 12 (3×) and 15 and 16 (2×) and 20 and 21 and 18 and 7
[1]; Table 3, 50 ppm, 1% ethanol, 1% ethanol control 23.7, water 28.8
  Number of Galls/Root System, Avg.: 14.9
[1]; Table 4, 1 ppm, 0.01% ethanol
  Number of Galls/Root System, single replicates (1 to 10): 7 and 10 and 18 and 14 and 23 and 32 and 1 and 5 and 16 and 9
[1]; Table 4, 1 ppm, 0.01% ethanol, water 25.5
  Number of Galls/Root System, Avg.: 13.5
[1]; Table 4, 5 ppm, 0.05% ethanol
  Number of Galls/Root System, single replicates (1 to 10): 7 and 36 and 17 and 18 and 25 and 6 and 14 and 16 and 11
[1]; Table 4, 5 ppm, 0.05% ethanol, water 25.5
  Number of Galls/Root System, Avg.: 16.7
[1]; Table 4, 10 ppm, 0.1% ethanol
  Number of Galls/Root System, single replicates (1 to 10): 10 and 22 and 34 and 23 and 25 and 26 and 24 and 0
[1]; Table 4, 10 ppm, 0.1% ethanol, water 25.5
  Number of Galls/Root System, Avg.: 18.4
[1]; Table 4, 25 ppm, 0.25% ethanol
  Number of Galls/Root System, single replicates (1 to 10): 1 and 8 and 30 and 2 and 28 and 7 and 14
[1]; Table 4, 25 ppm, 0.25% ethanol, water 25.5
  Number of Galls/Root System, Avg.: 10.1
[1]; Table 4, 50 ppm, 0.5% ethanol
  Number of Galls/Root System, single replicates (1 to 10): 12 and 4 and 0 and 22 and 8 and 1 and 5 and 34
[1]; Table 4, 50 ppm, 0.5% ethanol, water 25.5
  Number of Galls/Root System, Avg.: 8.6
[2]; mice
  LD10: 4 mg/kg
[2]; mice, oral, dose range of 10-20 mg/Kg
  toxicity by the oral route: toxic
[2]; oral, inferred from oral toxicity at 10-20 mg/Kg
  absorbability following oral administration: ready absorbability
[3]
  LD50 at 24 h: 5.2 ± 0.2 mg/kg
[4]; experimental animals / mice
  CNS-depressant activity: useful CNS-depressant activity
[4]; mouse, in vivo
  neuroleptic activity: neuroleptically active
[5]; SC-8 0.01 mg/Kg ip, pentobarbital 40 mg/Kg
  % Increase of Sleeping Time: 175%
[5]; SC-8 0.01 mg/Kg ip, pentobarbital 40 mg/Kg, control 12.0
  Sleeping Time, Treated: 21.0
[5]; SC-8 0.06 mg/Kg ip, pentobarbital 40 mg/Kg
  % Increase of Sleeping Time: 217%
[5]; SC-8 0.06 mg/Kg ip, pentobarbital 40 mg/Kg, control 12.0
  Sleeping Time, Treated: 26.0
[5]; SC-8 0.125 mg/Kg ip, pentobarbital 40 mg/Kg
  % Increase of Sleeping Time: 158%
[5]; SC-8 0.125 mg/Kg ip, pentobarbital 40 mg/Kg, control 12.0
  Sleeping Time, Treated: 19.0
[5]; SC-8 0.25 mg/Kg ip, pentobarbital 40 mg/Kg
  % Increase of Sleeping Time: 304%
[5]; SC-8 0.25 mg/Kg ip, pentobarbital 40 mg/Kg, control 10.8
  Sleeping Time, Treated: 32.8
[5]; SC-8 0.4 mg/Kg ip, pentobarbital 42 mg/Kg
  % Increase of Sleeping Time: 280%
[5]; SC-8 0.4 mg/Kg ip, pentobarbital 42 mg/Kg, control 16
  Sleeping Time, Treated: 44.8
[5]; SC-8 0.5 mg/Kg ip, pentobarbital 40 mg/Kg
  % Increase of Sleeping Time: 357%
[5]; SC-8 0.5 mg/Kg ip, pentobarbital 40 mg/Kg, control 10.8
  Sleeping Time, Treated: 36.6
[5]; SC-8 1.0 mg/Kg ip, pentobarbital 40 mg/Kg
  % Increase of Sleeping Time: 300%
[5]; SC-8 1.0 mg/Kg ip, pentobarbital 40 mg/Kg, control 10.8
  Sleeping Time, Treated: 32.4
[5]; SC-8 4.0 mg/Kg ip, pentobarbital 42 mg/Kg
  % Increase of Sleeping Time: 857%
[5]; SC-8 4.0 mg/Kg ip, pentobarbital 42 mg/Kg, control 16
  Sleeping Time, Treated: 140
[5]; dose range 1.0-0.05 mg/Kg
  prolongation of pentobarbital-sleeping time (conclusion): significant prolongation
[5]; summary statement, no dose
  potentiating sedatives of the pentobarbital type (summary): significant activity
[6]; alcohols, acetone, chloroform, benzene, ethyl acetate
  solubility in alcohols, acetone, chloroform, benzene and ethyl acetate: readily soluble
[6]; ether
  solubility in ether: sparingly
[6]; hexane or water
  solubility in hexane or water: very slightly
